Tests used:
[1] = system: peach aphids (Myzus persicae); experiment: Myzus test; assay type: in vivo; details: concentration of active compound 0.1 %, infested cabbage leaves (Brassica oleracea) dipped
[2] = system: caterpillars of the army worm (Spodoptera frugiperda); experiment: Spodoptera frugiperda test; assay type: in vivo; details: concentration of active compound 0.1 %, cabbage leaves (Brassica oleracea) dipped
[3] = system: larvae of the mustard beetle (Phaedon cochileariae); experiment: Phaedon larvae test; details: concentration of active compound 0.1 %, cabbage leaves (Brassica oleracea) dipped
[4] = system: greenhouse red spidermite (Tetranychus urticae); experiment: Tetranychus test (OP-resistant/dip treatment); assay type: in vivo; details: concentration of active compound 0.1 %, infested bean plants (Phaseolus vulgaris) dipped, OP-resistant
Description: After the desired period of time, the effect in % is determined.

Structure (SMILES) | Degree of kill in % after 6 days [1] | Degree of kill in % after 7 days [2] | melting point | Degree of kill in % after 7 days [3] | Degree of kill in % after 7 days [4]
COC1CCC2(CC1)NC(=O)C(c1c(C)cc(C)c(-c3ccccc3)c1C)=C2O (stereo not drawn) [Ex. I-1-a-6] | 100% | 100% | > 240 °C | 100% | –
Cc1ccc(-c2ccc(Cl)cc2)c(C)c1C1=C(O)C2(CCCOC2)NC1=O (stereo not drawn) [Ex. I-1-a-7] | 98% | 100% | > 250 °C | 100% | –
COC1CCC2(CC1)NC(=O)C(c1c(C)cc(C)c(-c3ccc(Cl)cc3)c1C)=C2O (stereo not drawn) [Ex. I-1-a-5] | – | 100% | > 240 °C | 100% | –
Cc1ccc(-c2ccc(Cl)cc2)c(C)c1C1=C(O)C2(CCC(C)CC2)NC1=O (stereo not drawn) [Ex. I-1-a-3] | 98% | 100% | > 240 °C | 100% | 100%
Cc1ccc(-c2ccccc2)c(C)c1C1=C(O)C2(CCC(C)CC2)NC1=O (stereo not drawn) [Ex. I-1-a-2] | 95% | – | > 240 °C | 100% | –
COc1cc(Cl)c(C2=C(O)C3(CCC(OC)CC3)NC2=O)cc1-c1ccccc1 (stereo not drawn) [Ex. I-1-a-13] | – | – | 134 °C | 100% | –

Reference: patent US6806264B2, “Arylphenyl-substituted cyclic ketoenols” (Bayer Aktiengesellschaft, priority 1998, dated 2004)
